We go through 43 compounds from ChEMBL document CHEMBL2176953, “Synthesis and evaluation of α-thymidine analogues as novel antimalarials” (J Med Chem, 2012).

Bounds are passed on as bounds.

One assay concerns Plasmodium falciparum. Kind of assay: Antimalarial activity against erythrocytic stages of Plasmodium falciparum 3D7 infected in human O positive RBC after 48 hrs by SYBR-green assay. The following applies: 3D7, 48 h. It is filed as functional, organism-based.
The target in a further assay is T1, Thymidylate kinase (Plasmodium falciparum (isolate 3D7), UniProt Q8I4S1).
T1 sequence (Q8I4S1 whole entry): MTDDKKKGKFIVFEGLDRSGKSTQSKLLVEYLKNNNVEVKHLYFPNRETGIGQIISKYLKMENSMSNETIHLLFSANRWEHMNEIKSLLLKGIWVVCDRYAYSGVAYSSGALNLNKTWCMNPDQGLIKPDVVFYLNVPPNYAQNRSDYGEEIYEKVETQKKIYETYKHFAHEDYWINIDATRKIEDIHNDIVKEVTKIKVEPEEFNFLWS
Put plainly: Inhibition of recombinant Plasmodium falciparum TMPK using TMP as substrate by pyruvate kinase and lactate dehydrogenase enzyme coupled assay.

A word on the EC50: it is the concentration at which the effect is half-maximal. A low value points to higher potency in that assay. The Ki is a measure of affinity in units of concentration, obtained from inhibition or displacement. In the assay with Plasmodium falciparum, `Cc1cn([C@H]2C[C@H](O)[C@@H](CNS(=O)(=O)c3ccc([N+](=O)[O-])cc3)O2)c(=O)[nH]c1=O` registered an EC50 above 100 µM. Further, on Thymidylate kinase, the inhibition constant Ki was above 1000 µM.

In turn, `Cc1cn([C@H]2C[C@H](O)[C@@H](CNC(=O)Nc3ccc(Cl)cc3)O2)c(=O)[nH]c1=O` gave a half-maximal effective concentration (EC50) in the assay on Plasmodium falciparum above 200 µM. Besides, the Ki at Thymidylate kinase turned out to be 14 µM.

In the assay on Plasmodium falciparum, `Cc1cn([C@H]2C[C@H](O)[C@@H](CNC(=O)Nc3ccc(Br)cc3)O2)c(=O)[nH]c1=O` gave an EC50 of 30 µM. In addition, the Ki at Thymidylate kinase worked out at 15 µM.

Compound `Cc1cn([C@H]2C[C@H](O)[C@@H](CNC(=S)Nc3ccc(Br)cc3)O2)c(=O)[nH]c1=O` displayed an EC50 with Plasmodium falciparum of 172 µM. Also, the Ki on Thymidylate kinase is 32 µM.

Regarding `Cc1cn([C@H]2C[C@H](O)[C@@H](CNC(=O)Nc3ccccc3)O2)c(=O)[nH]c1=O`, the EC50 with Plasmodium falciparum is above 100 µM. For the same compound, the Ki on Thymidylate kinase turned out to be 60 µM.

In the assay with Plasmodium falciparum, `Cc1cn([C@H]2C[C@H](O)[C@@H](CNC(=O)Nc3ccccc3Cl)O2)c(=O)[nH]c1=O` gave an EC50 above 100 µM. In addition, at Thymidylate kinase, the Ki is 52 µM.

As for `Cc1cn([C@H]2C[C@H](O)[C@@H](CNC(=O)Nc3ccccc3COc3ccccc3)O2)c(=O)[nH]c1=O`, the EC50 with Plasmodium falciparum worked out at 48 µM.

For `Cc1cn([C@@H]2C[C@H](O)[C@@H](CNS(=O)(=O)c3ccc4ccccc4c3)O2)c(=O)[nH]c1=O`, in the assay with Plasmodium falciparum, the EC50 was above 100 µM. Further, the inhibition constant (Ki) at Thymidylate kinase is above 1000 µM.

In the assay on Plasmodium falciparum, `Cc1cn([C@H]2C[C@H](O)[C@@H](CNC(=O)c3ccc4ccccc4c3)O2)c(=O)[nH]c1=O` yielded an EC50 above 100 µM. For the same compound, the Ki at Thymidylate kinase was above 1000 µM.

Turning to `Cc1cn([C@H]2C[C@H](O)[C@@H](CNC(=S)Nc3ccc(Cl)cc3)O2)c(=O)[nH]c1=O`, the EC50 in the assay with Plasmodium falciparum was above 200 µM. Besides, the Ki at Thymidylate kinase was determined as 37 µM.

Turning to `Cc1cn([C@H]2C[C@H](O)[C@@H](CNC(=O)Nc3ccccc3-c3ccccc3)O2)c(=O)[nH]c1=O`, the midpoint of the response in the assay with Plasmodium falciparum, the EC50, lay at 253 µM.

In turn, `Cc1cn([C@@H]2C[C@H](O)[C@@H](CNC(=O)Nc3ccccc3-c3ccccc3)O2)c(=O)[nH]c1=O` showed an EC50 in the assay on Plasmodium falciparum of 96 µM. Against the preceding compound, the EC50 is about 2.6-fold lower.

Turning to `Cc1cn([C@H]2C[C@H](O)[C@@H](CNC(=O)c3ccc([N+](=O)[O-])cc3)O2)c(=O)[nH]c1=O`, the EC50 in the assay on Plasmodium falciparum was above 100 µM. Also, the Ki on Thymidylate kinase was found to be 302 µM.

For `Cc1cn([C@@H]2C[C@H](O)[C@@H](CNC(=S)Nc3ccc(Br)cc3)O2)c(=O)[nH]c1=O`, it took 20 µM to reach a half-maximal effect in the assay on Plasmodium falciparum (EC50). Besides, the Ki at Thymidylate kinase was 65 µM.

The compound `COc1ccccc1NC(=O)NC[C@H]1O[C@H](n2cc(C)c(=O)[nH]c2=O)C[C@@H]1O` registered a half-maximal effective concentration (EC50) with Plasmodium falciparum of 44 µM. For the same compound, the Ki on Thymidylate kinase was 138 µM.

`Cc1cn([C@H]2C[C@H](O)[C@@H](CNC(=O)Nc3ccc(N4CCN(C)CC4)cc3)O2)c(=O)[nH]c1=O`: the concentration for a half-maximal effect (EC50) in the assay with Plasmodium falciparum came out at 26 µM.

Take `Cc1cn([C@@H]2C[C@H](O)[C@@H](CNCc3ccc([N+](=O)[O-])cc3)O2)c(=O)[nH]c1=O`: the EC50 in the assay with Plasmodium falciparum was above 100 µM. The Ki on Thymidylate kinase is above 1000 µM.

Regarding `Cc1cn([C@H]2C[C@H](O)[C@@H](CNCc3ccc([N+](=O)[O-])cc3)O2)c(=O)[nH]c1=O`, the EC50 in the assay with Plasmodium falciparum was above 100 µM. Also, the inhibition constant (Ki) at Thymidylate kinase is 742 µM.

As for `Cc1cn([C@@H]2C[C@H](O)[C@@H](CNC(=O)Nc3cccnc3)O2)c(=O)[nH]c1=O`, in the assay with Plasmodium falciparum, the EC50 was above 100 µM. Also, the inhibition constant (Ki) at Thymidylate kinase is above 1000 µM.

With `Cc1cn([C@@H]2C[C@H](O)[C@@H](CNS(=O)(=O)c3ccc([N+](=O)[O-])cc3)O2)c(=O)[nH]c1=O`, the concentration giving a half-maximal response (EC50) in the assay with Plasmodium falciparum was above 100 µM. For the same compound, the Ki at Thymidylate kinase is above 1000 µM.

In turn, `COc1ccc(NC(=O)NC[C@H]2O[C@@H](n3cc(C)c(=O)[nH]c3=O)C[C@@H]2O)cc1` gave an EC50 in the assay on Plasmodium falciparum of 69 µM. Besides, the Ki on Thymidylate kinase amounted to 50 µM.

In the assay on Plasmodium falciparum, `COc1ccccc1NC(=O)NC[C@H]1O[C@@H](n2cc(C)c(=O)[nH]c2=O)C[C@@H]1O` registered an EC50 above 100 µM. The Ki at Thymidylate kinase was found to be 107 µM.

Take `Cc1cn([C@H]2C[C@H](O)[C@@H](CNC(=O)Nc3ccc(OC4CCOCC4)cc3)O2)c(=O)[nH]c1=O`: the EC50 in the assay on Plasmodium falciparum was determined as 33 µM.

`Cc1cn([C@@H]2C[C@H](O)[C@@H](CNC(=O)Nc3ccc([N+](=O)[O-])cc3)O2)c(=O)[nH]c1=O` had an EC50 in the assay with Plasmodium falciparum of 31 µM. Besides, at Thymidylate kinase, the Ki was found to be 11 µM.

Regarding `Cc1cn([C@H]2C[C@H](O)[C@@H](CNC(=S)Nc3ccc(Cl)c(C(F)(F)F)c3)O2)c(=O)[nH]c1=O`, in the assay on Plasmodium falciparum, a half-maximal effect (EC50) was put at 42 µM. Also, the Ki on Thymidylate kinase was 25 µM.

In the case of `Cc1cn([C@@H]2C[C@H](O)[C@@H](CNC(=S)Nc3ccc(N4CCOCC4)cc3)O2)c(=O)[nH]c1=O`, in the assay with Plasmodium falciparum, the midpoint of the response, the EC50, lay at 35 µM.

Compound `Cc1cn([C@@H]2C[C@H](O)[C@@H](CNC(=O)NCc3ccccc3)O2)c(=O)[nH]c1=O` showed an EC50 in the assay with Plasmodium falciparum of 64 µM. Further, at Thymidylate kinase, the Ki came out at 198 µM.

For `Cc1cn([C@H]2C[C@H](O)[C@@H](CNC(=O)NCc3ccccc3)O2)c(=O)[nH]c1=O`, the EC50 in the assay with Plasmodium falciparum was above 200 µM. For the same compound, the inhibition constant Ki on Thymidylate kinase is 64 µM.

In the assay with Plasmodium falciparum, `Cc1cn([C@H]2C[C@H](O)[C@@H](CNC(=O)Nc3ccc(Cl)c(C(F)(F)F)c3)O2)c(=O)[nH]c1=O` showed an EC50 of 114 µM. In addition, the Ki on Thymidylate kinase amounted to 27 µM.

In turn, `Cc1cn([C@H]2C[C@H](O)[C@@H](CNC(=O)Nc3cccc4ccccc34)O2)c(=O)[nH]c1=O` came in with an EC50 in the assay on Plasmodium falciparum above 100 µM.

For the compound `Cc1cn([C@@H]2C[C@H](O)[C@@H](CNC(=O)Nc3ccc(N4CCN(C)CC4)cc3)O2)c(=O)[nH]c1=O`, in the assay with Plasmodium falciparum, the concentration for a half-maximal effect (EC50) turned out to be 29 µM. This lies in the double-digit micromolar range.

Compound `CCOC(=O)CCNC(=O)NC[C@H]1O[C@@H](n2cc(C)c(=O)[nH]c2=O)C[C@@H]1O` showed an EC50 in the assay with Plasmodium falciparum above 100 µM. Further, the Ki on Thymidylate kinase came to 201 µM.

In turn, `Cc1cn([C@H]2C[C@H](O)[C@@H](CNC(=O)Nc3ccc([N+](=O)[O-])cc3)O2)c(=O)[nH]c1=O` registered an EC50 in the assay on Plasmodium falciparum of 69 µM. The Ki at Thymidylate kinase is 11 µM.

The compound `Cc1ccc2nc(-c3ccc(NC(=O)NC[C@H]4O[C@@H](n5cc(C)c(=O)[nH]c5=O)C[C@@H]4O)cc3)sc2c1` registered an EC50 in the assay with Plasmodium falciparum above 200 µM.

In the assay with Plasmodium falciparum, `Cc1cn([C@@H]2C[C@H](O)[C@@H](CNC(=O)Nc3ccccc3Cl)O2)c(=O)[nH]c1=O` returned an EC50 of 36 µM. Also, the Ki at Thymidylate kinase is 205 µM.

On to `Cc1cn([C@@H]2C[C@H](O)[C@@H](CNC(=O)c3ccc([N+](=O)[O-])cc3)O2)c(=O)[nH]c1=O`, for which the EC50 with Plasmodium falciparum was above 100 µM. Further, the Ki on Thymidylate kinase turned out to be 541 µM.

Take `COc1ccc(COc2ccc(NC(=O)NC[C@H]3O[C@H](n4cc(C)c(=O)[nH]c4=O)C[C@@H]3O)cc2)cc1`: in the assay on Plasmodium falciparum, the midpoint of the response, the EC50, lay at 0.21 µM.

In turn, `Cc1cn([C@H]2C[C@H](O)[C@@H](CNC(=O)Nc3ccc(C(C)(C)C)cc3)O2)c(=O)[nH]c1=O` yielded an EC50 in the assay with Plasmodium falciparum of 64 µM. Moreover, the Ki on Thymidylate kinase came out at 47 µM.

In the assay with Plasmodium falciparum, `Cc1cn([C@H]2C[C@H](O)[C@@H](CNC(=O)Nc3cccnc3)O2)c(=O)[nH]c1=O` had an EC50 above 100 µM. Besides, the Ki at Thymidylate kinase turned out to be 222 µM.

The compound `Cc1cn([C@H]2C[C@H](O)[C@@H](CNC(=O)Nc3cccc(Cl)c3)O2)c(=O)[nH]c1=O` registered an EC50 in the assay with Plasmodium falciparum above 100 µM. Also, the Ki on Thymidylate kinase amounted to 28 µM.

For the compound `COc1cccc(NC(=O)NC[C@H]2O[C@H](n3cc(C)c(=O)[nH]c3=O)C[C@@H]2O)c1`, the EC50 in the assay on Plasmodium falciparum is 56 µM. Also, the Ki at Thymidylate kinase is 159 µM.

`Cc1cn([C@H]2C[C@H](O)[C@@H](CNC(=O)Nc3cccc(COc4ccccc4)c3)O2)c(=O)[nH]c1=O` yielded an EC50 in the assay with Plasmodium falciparum of 148 µM.

The compound `COc1cccc(NC(=O)NC[C@H]2O[C@@H](n3cc(C)c(=O)[nH]c3=O)C[C@@H]2O)c1` registered an EC50 with Plasmodium falciparum above 100 µM. Moreover, the inhibition constant (Ki) at Thymidylate kinase was 69 µM.
